According to patent US8975249B2, “Heterocyclic compounds and uses thereof” (Celgene Avilomics Research, Inc., priority 2010, dated 2015):
Like-named read-outs stand apart in the source and are kept apart here.

Experiments:
[1] = system: H1975 cells (EGFR L858R/T790M); experiment: Cell proliferation (CellTiter Glo), H1975 cells
WT EGFR (A431 cells) = WT EGFR (A431 cells) (Homo sapiens (Human), UniProt P00533); experiment: Phospho-EGFR signaling immunoblot in A431 cells (WT EGFR); type: cell-based; conditions: 1 hr treatment, EGF stimulated, phospho-EGFR (Y1068)
Method: (§1) A431 human epidermoid carcinoma, H1975 human NSCLC and HCC827 human NSCLC adenocarcinoma cells were obtained from the American Type Culture Center (Manassas, Va.). A431 cells were grown in DMEM (Invitrogen, Carlsbad, Calif.) supplemented with 10% FBS (HyClone, South Logan, Utah) and 1% Penicillin-Streptomycin (P/S, Lonza, Walkersville, Md.).
(§2) All primary antibodies were obtained from Cell Signaling (Danvers, Mass.) and used at 1:1000. Secondary antibodies were used at 1:10,000. Goat anti-mouse IgG IRDye 800CW antibody was obtained from LiCor Biosciences (Lincoln, Nebr.) and goat anti-rabbit IgG Alexa Fluor 680 was obtained from Invitrogen.
(§3) Cells were grown in 12-well plates (Corning, Coring, N.Y.) to 90% confluence and then incubated in low-serum (0.1% FBS) media for 16-18 hr. […] A431 cells were then stimulated with 50 ng/ml EGF (Peprotech, Rocky Hill, N.J.) for 15 min. After treatment, cell monolayers were washed with cold PBS (Invitrogen) and immediately lysed by scrapping into 60 uL cold Cell Extraction Buffer (Invitrogen) supplemented with Complete Protease inhibitors (Roche, Indianapolis, Ind.) and PhosphoSTOP (Roche) phosphatase inhibitors.
(§4) Phospho-protein signals were quantitated using Odyssey Infrared Imaging (Li-Cor Biosciences).
(§5) To assess phosphor-EGFR signaling, blots were probed with rabbit anti-Phospho-EGFR (Y1068) and mouse total anti-EGFR antibodies. Phospho-EGFR signal was normalized to total EGFR expression for each sample. […] Normalized data was fitted using a sigmoidal curve analysis program (Graph Pad Prism version 5) with variable Hill slope to determine the EC50 values.
(§6) The compound numbers recited in Table 4 correspond to the compound numbers in Table 1.

EGFR (WT) = EGFR (WT) (Homo sapiens (Human), UniProt P00533); experiment: Omnia biochemical assay, EGFR-WT active enzyme; conditions: [EGFR-WT]=5 nM, [ATP]=15 uM, 30 min pre-incubation
Method: Kinase reactions were started with the addition of 45 μL of the ATP/Tyr-Sox peptide substrate mix and monitored every 71 seconds for 60 minutes at λex360/λem485 in a Synergy^4 plate reader from BioTek (Winooski, Vt.).
The compound numbers correspond to the compound numbers in Table 1.

[2] = molecular target: EGFR double mutation L858R/T790M (H1975 cells) (Homo sapiens (Human), UniProt P00533, L858R/T790M); experiment: Phospho-EGFR signaling immunoblot in H1975 cells; type: cell-based; conditions: for EC50: H1975 cells, 1 hr treatment, phospho-EGFR (Y1068)
Method: as §1, §2, §3, §4, §5, §6

[3] = system: HCC827 cells (EGFR delE746-A750); experiment: Cell proliferation (CellTiter Glo), HCC827 cells
[4] = proliferation GI50 WT EGFR / H1975
[5] = proliferation GI50 WT EGFR / HCC827

EC50 (WT EGFR (A431 cells))	IC50 (EGFR (WT))	EC50 [2]	Ratio WT/mutant (H1975) ([2]; signaling EC50 WT EGFR / H1975)	Compound	Ratio WT/mutant (H1975) [1, 4]	Ratio WT/mutant (HCC827) [3, 5]	Ratio WT/mutant (H1975) [1]	Ratio WT/mutant (HCC827) [3]
> 1 µM	0.03 to 0.1 µM	0.1 to 0.5 µM	>35	C=CC(=O)Nc1cccc(Nc2nc(Nc3ccc(N4CCN(C(=O)C(C)(C)C)CC4)cc3OC)ncc2C(F)(F)F)c1 [Compound I-34, N-(3-(2-(2-methoxy-4-(4-pivaloylpiperazin-1-yl)phenylamino)-5-(trifluoromethyl)pyrimidin-4-ylamino)phenyl)acrylamide]	>5	>50		
> 1 µM	0.001 to 0.01 µM			C=CC(=O)Nc1cccc(Oc2nc(Nc3ccc(N4CCN(S(N)(=O)=O)CC4)cc3OC)ncc2C(F)(F)F)c1 [Compound I-27, N-(3-(2-(2-methoxy-4-(4-sulfamoylpiperazin-1-yl)phenylamino)-5-(trifluoromethyl)pyrimidin-4-yloxy)phenyl)acrylamide]	>1	>10		
	0.01 to 0.03 µM			C=CC(=O)Nc1cccc(Nc2nc(Nc3ccc(N4CCCOCC4)cc3OC)ncc2C(F)(F)F)c1 [Compound I-38, N-(3-(2-(2-methoxy-4-(1,4-oxazepan-4-yl)phenylamino)-5-(trifluoromethyl)pyrimidin-4-ylamino)phenyl)acrylamide]	>1	>5		
	0.03 to 0.1 µM			C=CC(=O)Nc1cccc(Oc2nc(Nc3ccc(N4CCCOCC4)cc3OC)ncc2Cl)c1 [Compound I-37, N-(3-(5-chloro-2-(2-methoxy-4-(1,4-oxazepan-4-yl)phenylamino)pyrimidin-4-yloxy)phenyl)acrylamide]	>1	>10		
	< 0.001 µM			C=CC(=O)Nc1cccc(Nc2nc(Nc3ccc(N4CCN(C(=O)CO)CC4)cc3OC(F)F)ncc2C(F)(F)F)c1 [Compound I-31, N-(3-(2-(2-(difluoromethoxy)-4-(4-(2-hydroxyacetyl)piperazin-1-yl)phenylamino)-5-(trifluoromethyl)pyrimidin-4-ylamino)phenyl)acrylamide]				
	0.001 to 0.01 µM			C=CC(=O)Nc1cccc(Nc2nc(Nc3ccc(N4CCN(C(=O)NC)CC4)cc3OC)ncc2C(F)(F)F)c1 [Compound I-28, 4-(4-(4-(3-acrylamidophenylamino)-5-(trifluoromethyl)pyrimidin-2-ylamino)-3-methoxyphenyl)-N-methylpiperazine-1-carboxamide]	>5	>50		
	< 0.001 µM			C=CC(=O)Nc1cccc(Nc2nc(Nc3ccc(N4CCN(C(C)=O)CC4)cc3OC(F)F)ncc2C(F)(F)F)c1 [Compound I-32, N-(3-(2-(4-(4-acetylpiperazin-1-yl)-2-(difluoromethoxy)phenylamino)-5-(trifluoromethyl)pyrimidin-4-ylamino)phenyl)acrylamide]				
	0.1 to 0.3 µM			C=CC(=O)Nc1cccc(Oc2nc(Nc3ccc(N4CCN(C(=O)CC(C)(C)C)CC4)cc3OC)ncc2Cl)c1 [Compound I-23, N-(3-(5-chloro-2-(4-(4-(3,3-dimethylbutanoyl)piperazin-1-yl)-2-methoxyphenylamino)pyrimidin-4-yloxy)phenyl)acrylamide]	>1	>20		
> 1 µM	0.01 to 0.03 µM			C=CC(=O)Nc1cccc(Nc2nc(Nc3ccc(N4CCN(C(=O)OC)CC4)cc3OC)ncc2C(F)(F)F)c1 [Compound I-29, methyl 4-(4-(4-(3-acrylamidophenylamino)-5-(trifluoromethyl)pyrimidin-2-ylamino)-3-methoxyphenyl)piperazine-1-carboxylate]	>10	>15		
	> 1 µM			C=CC(=O)Nc1cccc(Oc2nc(Nc3ccc(N4CCN(C(=O)OC(C)(C)C)CC4)cc3OC(F)(F)F)ncc2Cl)c1 [Compound I-47, tert-butyl 4-(4-(4-(3-acrylamidophenoxy)-5-chloropyrimidin-2-ylamino)-3-(trifluoromethoxy)phenyl)piperazine-1-carboxylate]				
	> 1 µM			C=CC(=O)Nc1cccc(Oc2nc(Nc3ccc(N4CCCN(C(=O)OC(C)(C)C)CC4)cc3OC)ncc2C(F)(F)F)c1 [Compound I-39, tert-butyl 4-(4-(4-(3-acrylamidophenoxy)-5-(trifluoromethyl)pyrimidin-2-ylamino)-3-methoxyphenyl)-1,4-diazepane-1-carboxylate]	<1	>1		
	0.01 to 0.03 µM			C=CC(=O)Nc1cccc(Oc2nc(Nc3ccc(N4CCOCC4)cc3OC(F)F)ncc2Cl)c1 [Compound I-36, N-(3-(5-chloro-2-(2-(difluoromethoxy)-4-morpholinophenylamino)pyrimidin-4-yloxy)phenyl)acrylamide]	>25	>50		

Second part, the compound before the results:

Compound	EC50 (WT EGFR (A431 cells))	IC50 (EGFR (WT))	EC50 [2]	Ratio WT/mutant (H1975) ([2]; signaling EC50 WT EGFR / H1975)	Ratio WT/mutant (H1975) [1, 4]	Ratio WT/mutant (HCC827) [3, 5]	Ratio WT/mutant (H1975) [1]	Ratio WT/mutant (HCC827) [3]
C=CC(=O)Nc1cccc(Oc2nc(Nc3ccc(N4CCOCC4)cc3OC(F)F)ncc2C(F)(F)F)c1 [Compound I-13, N-(3-(2-(2-(difluoromethoxy)-4-morpholinophenylamino)-5-(trifluoromethyl)pyrimidin-4-yloxy)phenyl)acrylamide]		0.03 to 0.1 µM	0.01 to 0.1 µM		>10	>50		
C=CC(=O)Nc1cccc(Nc2nc(Nc3ccc(N4CCN(C(=O)OC(C)(C)C)[C@H](C(=O)OC)C4)cc3OC)ncc2C(F)(F)F)c1 [Compound I-50, (S)-1-tert-butyl 2-methyl 4-(4-(4-(3-acrylamidophenylamino)-5-(trifluoromethyl)pyrimidin-2-ylamino)-3-methoxyphenyl)piperazine-1,2-dicarboxylate]					>10	>50		
C=CC(=O)Nc1cccc(Oc2nc(Nc3ccc(N4CCN(C(=O)OC(C)(C)C)CC4)cc3OC)ncc2C(F)(F)F)c1 [Compound I-42, tert-butyl 4-(4-(4-(3-acrylamidophenoxy)-5-(trifluoromethyl)pyrimidin-2-ylamino)-3-methoxyphenyl)piperazine-1-carboxylate]		0.3 to 1 µM						
C=CC(=O)Nc1cccc(Oc2nc(Nc3ccc(N4CCN(C(C)=O)CC4)cc3OC)ncc2Cl)c1 [Compound I-9, N-(3-(2-(4-(4-acetylpiperazin-1-yl)-2-methoxyphenylamino)-5-chloropyrimidin-4-yloxy)phenyl)acrylamide]	> 1 µM	0.001 to 0.01 µM			>5	>50		
C=CC(=O)Nc1cccc(Oc2nc(Nc3ccc(N4CCCN(C(=O)OC(C)(C)C)CC4)cc3OC)ncc2Cl)c1 [Compound I-43, tert-butyl 4-(4-(4-(3-acrylamidophenoxy)-5-chloropyrimidin-2-ylamino)-3-methoxyphenyl)-1,4-diazepane-1-carboxylate]		0.3 to 1 µM						
C=CC(=O)Nc1cccc(Oc2nc(Nc3ccc(N4CCN(C(=O)OC(C)(C)C)CC4)cc3OCC)ncc2Cl)c1 [Compound I-18, tert-butyl 4-(4-(4-(3-acrylamidophenoxy)-5-chloropyrimidin-2-ylamino)-3-ethoxyphenyl)piperazine-1-carboxylate]		> 1 µM			>1	>5		
C=CC(=O)Nc1cccc(Oc2nc(Nc3ccc(N4CCN(C(=O)OC)CC4)cc3OC)ncc2C(F)(F)F)c1 [Compound I-20, methyl 4-(4-(4-(3-acrylamidophenoxy)-5-(trifluoromethyl)pyrimidin-2-ylamino)-3-methoxyphenyl)piperazine-1-carboxylate]		0.01 to 0.03 µM					>5	>15
C=CC(=O)Nc1cccc(Nc2nc(Nc3ccc(N4CCCN(C(=O)C(F)(F)F)CC4)cc3OC)ncc2C(F)(F)F)c1 [Compound I-19, N-(3-(2-(2-methoxy-4-(4-(2,2,2-trifluoroacetyl)-1,4-diazepan-1-yl)phenylamino)-5-(trifluoromethyl)pyrimidin-4-ylamino)phenyl)acrylamide]		0.1 to 0.3 µM			>5	>10		
